Test results published in patent US11020457B2, “Compositions and methods for protecting the kidney from ischemia reperfusion injury” (University of Virginia Patent Foundation, priority 2013, dated 2021).
“Also recorded” adds a separate entry of the source.

What was measured:
TKPTS cells = test: In-vitro hypoxia and re-oxygenation of TKPTS cells, Annexin V/PI flow cytometry; format: cell-based, mouse; settings: 50 μM hepcidin for 24 hours, 1% hypoxia 6 hours, 6 hours re-oxygenation; p<0.005
Protocol: A mouse proximal tubule cell line (TKPTS cells, kindly provided by Dr. E. Bello-Reuss, University of Texas Medical Branch, Galveston, Tex.) was used in these studies. The cells were cultured in advanced DMEM/F12 medium supplemented with glutamine, 7.5% FBS and antibiotics. Cells were grown to 80% confluence and maintained at 37° C. in 5% CO2. All experiments were performed in serum free DMEM/F12 medium for a maximum of 24 hours.
TKPTS cells were subjected to hypoxia using a hypoxic chamber (Stemcell Technologies) for 6 hrs (5% CO2, 1% O2, and 94% N2) followed by re-oxygenation for 6 hrs (5% CO2, 21% 02, and 74% N2). Three culture conditions were set up: 1. Normoxia (which served as the base line control); 2. Hypoxia; and 3. Cells pretreated with 50 μM hepcidin and subjected to hypoxia. Experiments were carried out in serum free advanced DMEM/F12 medium. At the end of re-oxygenation, cells were stained with Annexin V/PI and extent of apoptosis was determined using flow cytometry.
To investigate if hepcidin has a direct anti-apoptotic effect on renal tubular epithelial cells, we subjected murine proximal renal tubular cells (TKPTS) to hypoxia-reoxygenation injury in vitro (34). TKPTS cells were first treated with or without 50 μM hepcidin for 24 hours in 5% serum containing medium. After transferring to serum free medium, the cells were then cultured in 1% hypoxia for 6 hours. […]

[1] = tested on: folic acid induced acute kidney injury; test: Folic acid induced acute kidney injury (data not shown); format: in vivo
[2] = tested on: hepcidin knockout mice (HAMP−/−); test: Mild renal IRI in HAMP-/- mice: 4-HNE staining and immunofluorescence of neutrophils and CD11b cells; format: in vivo; settings: for kidney 4-HNE immunoreactivity: hepcidin reconstituted HAMP-/- IRI, FIG. 8c; for kidney neutrophil and CD11b cell infiltration: hepcidin reconstitution in HAMP-/- IRI mice, FIGS. 8e and g
Protocol: All experiments were performed in accordance with the National Institutes of Health and Institutional Animal Care and Use Guidelines. The Animal Care and Use Committee of the University of Virginia approved all procedures and protocols. C57BL/6 mice from the Jackson Laboratory and hepcidin knockout mice (HAMP−/−), a kind gift from Dr Cindy Roy (John Hopkins University) were used in this study. All experiments were performed on 8-10 weeks old male mice. Kidney ischemia-reperfusion surgery was performed as previously reported (44). The core temperature of the mice was maintained between 34° C. and 36° C. using a heating pad. After anesthetizing the mice (ketamine, 12 mg/ml; atropine, 0.48 mg/ml; xylazine, 24 mg/ml; […] mixture administered per 20 g body weight), bilateral flank incisions were made, both renal pedicles were exposed, and cross-clamped for 26 minutes (severe I/R injury) or 24 minutes (mild I/R injury). After the determined ischemia, clamps were removed, and kidneys were allowed to reperfuse for 24 hours. Ambient postoperative air temperature was maintained between 30° C. and 32° C. until mice had fully recovered. Sham-operated animals underwent bilateral flank incisions without clamping of renal pedicles. Twenty-four hours later, mice were euthanized, and tissues were harvested.
Kidney sections were embedded in paraffin, 3 μm sectioned, and stained for 4 Hydroxynonenal (4-HNE) using standard protocols. Briefly sections were deparaffanized in xylenes, rehydrated in a series of ethanol rinses from 100% to 70% ethanol, then washed in distilled water. Sections were then incubated in 3% H2O2 in methanol for 20 minutes. After treating with Avidin and Biotin for 15 minutes each (Vector) the sections were blocked in blocking buffer containing 10% donkey serum in sodium phosphate buffer (NaPO4 buffer), at room temperature for 30 minutes. 4-HNE antibody was diluted in 1% BSA in NaPO4 buffer (Abcam; 1:1000) and added to sections overnight at 4° C. Sections were washed 3 times with NaPO4 buffer for 5 minutes each and incubated with biotinylated donkey anti-goat secondary antibody (Vector) for 1 hour. Sections were washed 3 times in NaPO4 buffer, and then incubated in ABC ready-to-use reagent (Vector Labs) for 30 minutes. After another 3 washes with NaPO4 buffer the sections exposed to diaminobenzidine (DAB) for 5 minutes followed by washing with in distilled water. The sections were counter-stained with 1% methylene blue solution, washed in water and dehydrated with xylene. Sections were imaged by using a Zeiss Axio Imager Z2/Apotome Microscope fitted with motorized focus drives and motorized XYZ microscope stage and integrated to a workstation running StereoInvestigator software, version 10.51 (MBF Bioscience, Williston, Vt.) […]

Mouse hepcidin 25 (DTNFPICIFCCKCCNNSQCGICCKT; listed as Mus musculus)
Annexin V/PI positive cells (apoptosis/necrosis) (TKPTS cells): significantly lower Annexin V/PI staining compared to untreated cells; also recorded: reduced to levels seen under normoxia
protection against folic acid induced acute kidney injury [1]: protective against folic acid induced acute kidney injury
kidney 4-HNE immunoreactivity [2]: little reactivity to 4 HNE
kidney 4-HNE immunoreactivity ([2]; listed as hepcidin): far less immunoreactivity to 4-HNE
kidney neutrophil and CD11b cell infiltration [2]: dramatically reduced
kidney neutrophil and CD11b cell infiltration ([2]; listed as hepcidin): almost completely prevented kidney injury-associated neutrophil or CD11b cell infiltration
